Paper PMC3596113 (Clinical cancer research : an official journal of the …, 2012)
Like-named read-outs stand apart in the source and are kept apart here. Marks after values point to notes of the source that are not given here.

Legend:
[1] = test system: Chk2; conditions: cited from earlier work
[2] = test system: phosphorylation of histone H2Ax in leukemia blast cells; assay: H2Ax phosphorylation in marrow blasts; format: in vivo, human
[3] = test system: CDK1; conditions: cited from earlier work
[4] = test system: relapsed and refractory acute leukemias
[5] = AML patient 49, dose level 1, Ref
[6] = AML patient 73, dose level 5, Relapse 66 mo
[7] = Total, 24 adults, all dose levels
[8] = dose level 1, 10 mg/m^2 (n = 3) + cytarabine
[9] = dose level 2, 20 mg/m^2 (n = 3) + cytarabine
[10] = dose level 4, 56 mg/m^2 (n = 6) + cytarabine
[11] = dose level 5, 140 mg (n = 6) + cytarabine

Question: For Cn1cc(-c2cnn3c(N)c(Br)c([C@@H]4CCCNC4)nc23)cn1 [SCH 900776], which “Effect on Chk2” value [1] is on record?
Answer: without substantial effect

Question: What about the “Sets of samples with enhanced H2Ax phosphorylation” value ([2]; patients treated with 40 mg/m^2 SCH 900776 or higher) of the same molecule?
Answer: 3 of 5

Question: What about the “Effect on CDK1” value [3] of the same molecule?
Answer: without substantial effect

Question: And the “Response rate (CR plus CRi)” value ([4]; 1 CRi of 6 patients at SCH 900776 doses ≤ 20 mg/m^2)?
Answer: 17%

Question: And the CR/CRi rate ([4]; 2 of 10 patients with AML with adverse cytogenetics)?
Answer: 20%

Question: What about the CR/CRi rate ([4]; 2 of 10 patients with a complex karyotype) of the same molecule?
Answer: 20%

Question: What about the CR/CRi rate ([4]; 3 of 8 with secondary AML) of the same molecule?
Answer: 38%

Question: And the CR/CRi rate ([4]; 4/8 with relapsed AML)?
Answer: 50%

Question: And the “Response rate (CR plus CRi)” value ([4]; 7 (5 CR, 2 CRi) of 18 patients at dose level 3 (40 mg/m^2) or higher)?
Answer: 39%

Question: And the “CR/CRi rate in patients with AML” value ([4]; 8 of 21 patients with AML)?
Answer: 38%

Question: And the “Overall response rate (CR plus CRi)” value ([4]; 8 of 24 patients, all dose levels)?
Answer: 33%

Question: What about the “Complete tumor clearance (CTC) by day 14, rate” value ([4]; 12 of 24 patients, all dose levels) of the same molecule?
Answer: 50%

Question: And the “DFS (mo)” value ([4]; AML patient 25, dose level 3, Relapse 7 mo)?
Answer: 25.2+ mo

Question: And the “DFS (mo)” value [4, 5]?
Answer: 2.0 mo

Question: And the “Response (CR/CRi)” value [4, 5]?
Answer: CRi

Question: And the “DFS (mo)” value ([4]; AML patient 52, dose level 3, primary Ref)?
Answer: 2.2 mo

Question: What about the “DFS (mo)” value ([4]; AML patient 55, dose level 3, primary Ref) of the same molecule?
Answer: 11.3 mo

Question: What about the “DFS (mo)” value ([4]; AML patient 60, dose level 4, Relapse 8 mo) of the same molecule?
Answer: 22.4+ mo

Question: What about the “DFS (mo)” value ([4]; AML patient 61, dose level 5, Relapse 19 mo) of the same molecule?
Answer: 18.1+ mo

Question: What about the “DFS (mo)” value ([4]; AML patient 70, dose level 4, primary Ref) of the same molecule?
Answer: 9.7 mo

Question: And the “DFS (mo)” value [4, 6]?
Answer: 0.2 mo

Question: And the “Response (CR/CRi)” value [4, 6]?
Answer: CRi

Question: What about the “Day 14 CTC (patients)” value [4, 7] of the same molecule?
Answer: 12

Question: And the “Response (CR/CRi) (patients)” value [4, 7]?
Answer: 8 (5/3): all AML

Question: And the “Response in pts with prior cytarabine” value ([4]; Total, 24 adults, high = prior 2 g/m^2/72 h infusion or high-dose cytarabine)?
Answer: 7 (6 high)

Question: And the “Median duration of response” value ([4]; all patients with CR/CRi, range 0.2–27+)?
Answer: 10 months

Question: And the Responders remaining alive ([4]; as of June 1, 2012, at 19+ to 30.5+ months)?
Answer: 5 of the 8

Question: What about the “Response rate (CR plus CRi)” value ([4]; at least 2 of 6 in each of dose levels 3 through 5) of the same molecule?
Answer: ≥ 33%

Question: What about the “Complete tumor clearance (CTC) by day 14, rate” value ([4]; at least 3 of 6 per level beginning at dose level 3 (40 mg/m^2)) of the same molecule?
Answer: ≥ 50%

Question: What about the “Day 14 CTC (patients)” value [4, 8] of the same molecule?
Answer: 1

Question: What about the “Response (CR/CRi) (patients)” value [4, 8] of the same molecule?
Answer: 1 (0/1): AML

Question: And the “Response in pts with prior cytarabine” value ([4]; dose level 1, 10 mg/m^2 (n = 3), high = prior 2 g/m^2/72 h infusion or high-dose cytarabine)?
Answer: 1 (high) ^a

Question: What about the “Response in pts with prior cytarabine” value ([4]; dose level 2, 20 mg/m^2 (n = 3)) of the same molecule?
Answer: 0

Question: And the “Day 14 CTC (patients)” value [4, 9]?
Answer: 1

Question: What about the “Response (CR/CRi) (patients)” value [4, 9] of the same molecule?
Answer: 0 (0/0)

Question: And the “Day 14 CTC (patients)” value ([4]; dose level 3, 40 mg/m^2 (n = 6) + cytarabine)?
Answer: 4

Question: And the “Response in pts with prior cytarabine” value ([4]; dose level 3, 40 mg/m^2 (n = 6), high = prior 2 g/m^2/72 h infusion or high-dose cytarabine)?
Answer: 2 (both high)

Question: What about the “Day 14 CTC (patients)” value [4, 10] of the same molecule?
Answer: 3

Question: What about the “Response (CR/CRi) (patients)” value [4, 10] of the same molecule?
Answer: 2 (2/0): both AML

Question: And the “Response in pts with prior cytarabine” value ([4]; dose level 4, 56 mg/m^2 (n = 6), high = prior 2 g/m^2/72 h infusion or high-dose cytarabine)?
Answer: 2 (1 high)

Question: What about the “Day 14 CTC (patients)” value [4, 11] of the same molecule?
Answer: 3

Question: What about the “Response (CR/CRi) (patients)” value [4, 11] of the same molecule?
Answer: 2 (1/1): both AML

Question: What about the “Response in pts with prior cytarabine” value ([4]; dose level 5, 140 mg (n = 6), high = prior 2 g/m^2/72 h infusion or high-dose cytarabine) of the same molecule?
Answer: 2 (both high)

Question: What about the “CR/CRi in patients who had day 14 CTC” value ([4]; human, in vivo) of the same molecule?
Answer: 8 of the 12

Question: What about the “CR/CRi in patients who had residual leukemia on day 14” value ([4]; human, in vivo) of the same molecule?
Answer: none

Question: What about the CR/CRi ([4]; patients with FLT3-ITD AML) of the same molecule?
Answer: none

Question: Which “Samples with increase in H2Ax phosphorylation” value ([2]; marrow blasts, after 24 hours of continuous cytarabine infusion, before SCH 900776 (day 2)) does the source give for Nc1ccn([C@@H]2O[C@H](CO)[C@@H](O)[C@@H]2O)c(=O)n1 [cytarabine, reference compound] here?
Answer: 2 of 10
